Data as given in US9174925B2 (priority 2011, dated 2015).
Like-named read-outs stand apart in the source and are kept apart here.

Experiments:
[1] = system: NK92 cells; type: cell-based, human
[2] = reported in literature (Hirota M. et al., 1979); cited from earlier work
[3] = system: Epstein-Barr virus; details: reported in literature (Hirota M. et al., 1979); cited from earlier work

## CCCCCCCCCCCCCCCC(=O)O[C@@H]1[C@@H](C)[C@@]2(O)[C@@H](C(=O)C(CO)=C[C@]3(O)C(=O)C(C)=C[C@@H]23)[C@H]2[C@]1(OC(C)=O)[C@@]2(C)CO [Compound 1, 12-O-hexadecanoyl-7-oxo-5-ene-16-hydroxyphorbol-13-acetate]
[1]; 40 nM, FIG. 8
  activity for inducing IFN-γ production: high activity for inducing IFN-γ production

## CCCCCCCCCCCCCCCC(=O)OC1C(C)C2(O)C(C(=O)C(CO)=CC3(O)C(=O)C(C)=CC32)C2C(C)(C)C12OC(C)=O (centres unmarked) [Compound 2, 12-O-hexadecanoyl-7-oxo-5-ene-phorbol-13-acetate]
[1]; 1.6 μM, FIG. 7
  activity for inducing IFN-γ production: had activity for inducing IFN-γ production

## CCCCCCCCCCCCCCCC(=O)O[C@@H]1[C@@H](C)[C@@]2(O)[C@@H](C=C(CO)C[C@]3(O)C(=O)C(C)=C[C@@H]23)[C@H]2[C@]1(OC(C)=O)[C@]2(C)CO [Compound 4, 12-O-hexadecanoyl-16-hydroxyphorbol-13-acetate]
[2]
  piscicidal effects: piscicidal effects
[3]
  Epstein-Barr virus activation: Epstein-Barr virus activation

## CCCCCCCCCCCCCCCC(=O)O[C@@H]1[C@@H](C)[C@]2(O)[C@@H]3C=C(C)C(=O)[C@@H]3CC(CO)=C[C@H]2[C@H]2[C@]1(OC(C)=O)[C@@]2(C)CO [Compound 5, 12-O-hexadecanoyl-4-deoxy-4α-16-hydroxyphorbol-13-acetate]
[1]; 8 μM, FIG. 7
  activity for inducing IFN-γ production: had activity for inducing IFN-γ production
